Experimental data reported in ChEMBL document CHEMBL1201862, “PubChem BioAssay data set” (2004).
Activity calls are given as the source filed them.

What was measured:
[1] = cytotoxicity in HEK-293T cells, dose response, cytotoxicity control for TCR NF-kB inhibitor project, luminescence, T-cell screen hits (AID 489026); type: functional, cell-based;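 further: cells exposed to compound about 14 hours before the viability readout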
[2] = target: T1, Sentrin-specific protease 7 (Homo sapiens, UniProt Q9BQF6); type: functional;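 further: Luminescence-based dose-response confirmation of ultra-high-throughput screening hits, measuring inhibition of SENP7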
T1 sequence (Q9BQF6 whole entry): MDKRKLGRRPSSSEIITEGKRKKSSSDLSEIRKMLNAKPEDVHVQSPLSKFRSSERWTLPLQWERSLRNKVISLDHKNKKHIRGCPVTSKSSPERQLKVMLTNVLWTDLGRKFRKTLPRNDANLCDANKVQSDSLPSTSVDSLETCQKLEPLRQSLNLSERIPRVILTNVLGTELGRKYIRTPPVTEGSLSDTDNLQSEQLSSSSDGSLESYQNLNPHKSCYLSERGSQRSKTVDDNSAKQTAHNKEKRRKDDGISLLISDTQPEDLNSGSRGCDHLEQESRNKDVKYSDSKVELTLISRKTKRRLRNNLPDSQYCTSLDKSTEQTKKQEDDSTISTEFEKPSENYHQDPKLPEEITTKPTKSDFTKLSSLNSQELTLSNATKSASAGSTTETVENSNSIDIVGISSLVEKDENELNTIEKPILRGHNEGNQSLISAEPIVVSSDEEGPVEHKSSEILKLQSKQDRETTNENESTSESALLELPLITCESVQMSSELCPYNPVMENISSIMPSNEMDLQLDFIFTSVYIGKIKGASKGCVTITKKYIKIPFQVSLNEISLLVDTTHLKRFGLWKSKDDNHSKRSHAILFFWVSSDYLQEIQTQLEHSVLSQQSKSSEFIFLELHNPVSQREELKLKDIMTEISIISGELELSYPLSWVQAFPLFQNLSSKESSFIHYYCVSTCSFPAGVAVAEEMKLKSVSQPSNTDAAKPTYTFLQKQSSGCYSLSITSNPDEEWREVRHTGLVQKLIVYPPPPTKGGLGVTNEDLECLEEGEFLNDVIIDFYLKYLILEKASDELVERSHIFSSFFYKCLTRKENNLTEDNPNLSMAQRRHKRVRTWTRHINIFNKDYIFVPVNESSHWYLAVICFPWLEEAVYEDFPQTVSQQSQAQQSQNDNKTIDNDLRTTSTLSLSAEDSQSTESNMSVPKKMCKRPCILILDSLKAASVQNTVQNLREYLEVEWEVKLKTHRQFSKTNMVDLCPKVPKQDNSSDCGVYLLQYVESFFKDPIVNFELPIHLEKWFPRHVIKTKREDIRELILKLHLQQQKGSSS

[3] = target: T2, Caspase-3 (Homo sapiens, UniProt P42574); type: functional;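 further: Dose-response selectivity test against caspase-3 for candidate inhibitors of sentrin-specific proteases (SENPs)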
T2 sequence (P42574 whole entry): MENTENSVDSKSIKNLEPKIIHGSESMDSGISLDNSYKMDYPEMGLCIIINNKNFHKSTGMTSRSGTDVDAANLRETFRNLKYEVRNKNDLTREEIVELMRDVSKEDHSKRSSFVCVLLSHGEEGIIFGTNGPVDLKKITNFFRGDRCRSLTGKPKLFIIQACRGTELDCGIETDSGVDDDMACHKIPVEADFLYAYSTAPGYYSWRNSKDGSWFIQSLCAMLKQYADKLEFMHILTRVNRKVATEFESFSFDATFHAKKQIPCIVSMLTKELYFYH

[4] = target: T3, Sentrin-specific protease 6 (Homo sapiens, UniProt Q9GZR1); type: functional;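 further: Luminescence-based dose-response confirmatory assay of SENP6 inhibition, following up an ultra-high-throughput screen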
T3 sequence (Q9GZR1 whole entry): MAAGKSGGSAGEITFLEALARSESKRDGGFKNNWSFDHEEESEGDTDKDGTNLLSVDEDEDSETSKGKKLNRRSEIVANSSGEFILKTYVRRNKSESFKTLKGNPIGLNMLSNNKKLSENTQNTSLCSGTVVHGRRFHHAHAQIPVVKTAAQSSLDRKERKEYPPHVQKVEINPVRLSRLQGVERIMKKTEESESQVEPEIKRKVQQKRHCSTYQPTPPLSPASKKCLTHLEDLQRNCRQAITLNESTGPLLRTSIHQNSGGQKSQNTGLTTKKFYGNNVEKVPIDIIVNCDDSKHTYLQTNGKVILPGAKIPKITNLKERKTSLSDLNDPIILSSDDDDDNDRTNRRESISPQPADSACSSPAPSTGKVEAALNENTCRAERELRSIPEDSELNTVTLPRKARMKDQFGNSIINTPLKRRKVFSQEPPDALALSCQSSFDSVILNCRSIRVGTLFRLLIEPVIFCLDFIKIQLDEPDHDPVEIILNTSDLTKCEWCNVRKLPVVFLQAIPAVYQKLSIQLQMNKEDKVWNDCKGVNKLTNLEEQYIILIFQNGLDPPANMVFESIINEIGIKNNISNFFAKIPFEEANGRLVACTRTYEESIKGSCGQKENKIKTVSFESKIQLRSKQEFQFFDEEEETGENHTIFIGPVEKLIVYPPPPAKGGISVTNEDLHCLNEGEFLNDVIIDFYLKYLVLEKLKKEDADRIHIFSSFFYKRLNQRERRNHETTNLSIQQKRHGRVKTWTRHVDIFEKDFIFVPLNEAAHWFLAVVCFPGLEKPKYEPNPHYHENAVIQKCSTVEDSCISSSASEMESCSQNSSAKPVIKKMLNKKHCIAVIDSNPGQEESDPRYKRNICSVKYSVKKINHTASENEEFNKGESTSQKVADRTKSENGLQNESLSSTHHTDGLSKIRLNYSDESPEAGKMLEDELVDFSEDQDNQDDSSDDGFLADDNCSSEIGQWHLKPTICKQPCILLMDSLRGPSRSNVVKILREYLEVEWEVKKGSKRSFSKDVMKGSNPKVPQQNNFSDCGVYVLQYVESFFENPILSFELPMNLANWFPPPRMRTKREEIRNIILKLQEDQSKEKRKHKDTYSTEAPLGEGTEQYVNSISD

[5] = target: T4, Sentrin-specific protease 8 (Homo sapiens, UniProt Q96LD8); type: functional;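 further: luminescence read-out of SENP8 inhibition, dose-response confirmation following an ultra-high-throughput screen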
T4 sequence (Q96LD8 whole entry): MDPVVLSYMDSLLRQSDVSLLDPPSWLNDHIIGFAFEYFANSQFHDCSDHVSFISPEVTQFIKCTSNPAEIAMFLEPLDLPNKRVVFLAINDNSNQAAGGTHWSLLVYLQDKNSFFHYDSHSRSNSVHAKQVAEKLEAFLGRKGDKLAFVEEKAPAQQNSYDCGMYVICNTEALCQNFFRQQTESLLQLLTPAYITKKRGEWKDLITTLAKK

[6] = LGR2 antagonists, dose response, cell-based, HEK293, CRE-luciferase reporter, cherry pick, set 2 (AID 743343); type: functional;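 further: transfected cells were stimulated with diluted bursicon conditioned medium after compound addition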
[7] = target: T5, Microphthalmia-associated transcription factor (Homo sapiens, UniProt O75030); assay: TRPM1 promoter luciferase signal decrease, dose response, MITF inhibitor project, cell-based, SK-MEL-5, cherry-picked, set 3 (AID 493073); type: functional
T5 sequence (O75030 whole entry): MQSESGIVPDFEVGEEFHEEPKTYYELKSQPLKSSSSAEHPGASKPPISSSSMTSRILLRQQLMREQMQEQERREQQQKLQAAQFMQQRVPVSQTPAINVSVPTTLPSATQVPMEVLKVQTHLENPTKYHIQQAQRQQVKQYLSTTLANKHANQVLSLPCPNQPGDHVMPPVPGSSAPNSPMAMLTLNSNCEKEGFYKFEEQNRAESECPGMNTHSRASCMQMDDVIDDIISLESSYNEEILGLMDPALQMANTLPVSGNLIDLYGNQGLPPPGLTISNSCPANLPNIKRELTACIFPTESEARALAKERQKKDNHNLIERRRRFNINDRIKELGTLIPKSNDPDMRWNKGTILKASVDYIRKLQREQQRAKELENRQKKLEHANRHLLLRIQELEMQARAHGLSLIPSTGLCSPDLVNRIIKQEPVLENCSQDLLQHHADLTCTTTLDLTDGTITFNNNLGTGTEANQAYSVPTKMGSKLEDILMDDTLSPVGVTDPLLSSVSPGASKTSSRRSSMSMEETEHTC

[8] = MC4R antagonists, dose response, counter-screen for LGR2 antagonist project, cell-based, plate reader, cherry pick (AID 743444); type: functional;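 further: transfected HEK 293 cells stimulated with alpha-MSH peptide; potency of inhibitors of the alpha-MSH evoked signal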
[9] = target: T6, Coagulation factor XII (Homo sapiens, UniProt P00748); type: functional;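 further: activated factor XIIa alpha cleaving a fluorogenic AMC peptide substrate; inhibitor potency from loss of enzyme activity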
T6 sequence (P00748 whole entry): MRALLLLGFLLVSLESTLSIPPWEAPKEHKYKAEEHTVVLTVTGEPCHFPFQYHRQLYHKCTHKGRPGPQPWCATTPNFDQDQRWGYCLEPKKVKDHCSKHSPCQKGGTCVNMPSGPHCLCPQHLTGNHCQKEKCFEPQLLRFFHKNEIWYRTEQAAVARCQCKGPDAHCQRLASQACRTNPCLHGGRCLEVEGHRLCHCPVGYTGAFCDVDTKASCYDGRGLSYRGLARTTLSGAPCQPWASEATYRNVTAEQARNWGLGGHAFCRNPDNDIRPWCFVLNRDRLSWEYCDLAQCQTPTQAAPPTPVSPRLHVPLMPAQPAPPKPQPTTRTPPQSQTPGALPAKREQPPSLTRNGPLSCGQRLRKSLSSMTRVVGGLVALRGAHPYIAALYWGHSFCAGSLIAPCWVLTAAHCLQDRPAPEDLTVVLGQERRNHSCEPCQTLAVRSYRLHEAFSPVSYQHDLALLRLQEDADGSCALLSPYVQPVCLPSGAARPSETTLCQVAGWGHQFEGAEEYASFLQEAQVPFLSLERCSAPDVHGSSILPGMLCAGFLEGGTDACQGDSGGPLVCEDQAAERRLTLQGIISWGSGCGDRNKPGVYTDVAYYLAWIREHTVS

[10] = target: T7, Fatty acid synthase (Homo sapiens, UniProt P49327); assay: FAS thioesterase domain inhibitors, dose response, biochemical, endpoint fluorescence intensity, uHTS hits (AID 624327); type: functional;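 further: fluorescence from hydrolysis of an O-methyl fluorescein acyl ester substrate by the enzyme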
T7 sequence (P49327 whole entry, the tested form may be a part): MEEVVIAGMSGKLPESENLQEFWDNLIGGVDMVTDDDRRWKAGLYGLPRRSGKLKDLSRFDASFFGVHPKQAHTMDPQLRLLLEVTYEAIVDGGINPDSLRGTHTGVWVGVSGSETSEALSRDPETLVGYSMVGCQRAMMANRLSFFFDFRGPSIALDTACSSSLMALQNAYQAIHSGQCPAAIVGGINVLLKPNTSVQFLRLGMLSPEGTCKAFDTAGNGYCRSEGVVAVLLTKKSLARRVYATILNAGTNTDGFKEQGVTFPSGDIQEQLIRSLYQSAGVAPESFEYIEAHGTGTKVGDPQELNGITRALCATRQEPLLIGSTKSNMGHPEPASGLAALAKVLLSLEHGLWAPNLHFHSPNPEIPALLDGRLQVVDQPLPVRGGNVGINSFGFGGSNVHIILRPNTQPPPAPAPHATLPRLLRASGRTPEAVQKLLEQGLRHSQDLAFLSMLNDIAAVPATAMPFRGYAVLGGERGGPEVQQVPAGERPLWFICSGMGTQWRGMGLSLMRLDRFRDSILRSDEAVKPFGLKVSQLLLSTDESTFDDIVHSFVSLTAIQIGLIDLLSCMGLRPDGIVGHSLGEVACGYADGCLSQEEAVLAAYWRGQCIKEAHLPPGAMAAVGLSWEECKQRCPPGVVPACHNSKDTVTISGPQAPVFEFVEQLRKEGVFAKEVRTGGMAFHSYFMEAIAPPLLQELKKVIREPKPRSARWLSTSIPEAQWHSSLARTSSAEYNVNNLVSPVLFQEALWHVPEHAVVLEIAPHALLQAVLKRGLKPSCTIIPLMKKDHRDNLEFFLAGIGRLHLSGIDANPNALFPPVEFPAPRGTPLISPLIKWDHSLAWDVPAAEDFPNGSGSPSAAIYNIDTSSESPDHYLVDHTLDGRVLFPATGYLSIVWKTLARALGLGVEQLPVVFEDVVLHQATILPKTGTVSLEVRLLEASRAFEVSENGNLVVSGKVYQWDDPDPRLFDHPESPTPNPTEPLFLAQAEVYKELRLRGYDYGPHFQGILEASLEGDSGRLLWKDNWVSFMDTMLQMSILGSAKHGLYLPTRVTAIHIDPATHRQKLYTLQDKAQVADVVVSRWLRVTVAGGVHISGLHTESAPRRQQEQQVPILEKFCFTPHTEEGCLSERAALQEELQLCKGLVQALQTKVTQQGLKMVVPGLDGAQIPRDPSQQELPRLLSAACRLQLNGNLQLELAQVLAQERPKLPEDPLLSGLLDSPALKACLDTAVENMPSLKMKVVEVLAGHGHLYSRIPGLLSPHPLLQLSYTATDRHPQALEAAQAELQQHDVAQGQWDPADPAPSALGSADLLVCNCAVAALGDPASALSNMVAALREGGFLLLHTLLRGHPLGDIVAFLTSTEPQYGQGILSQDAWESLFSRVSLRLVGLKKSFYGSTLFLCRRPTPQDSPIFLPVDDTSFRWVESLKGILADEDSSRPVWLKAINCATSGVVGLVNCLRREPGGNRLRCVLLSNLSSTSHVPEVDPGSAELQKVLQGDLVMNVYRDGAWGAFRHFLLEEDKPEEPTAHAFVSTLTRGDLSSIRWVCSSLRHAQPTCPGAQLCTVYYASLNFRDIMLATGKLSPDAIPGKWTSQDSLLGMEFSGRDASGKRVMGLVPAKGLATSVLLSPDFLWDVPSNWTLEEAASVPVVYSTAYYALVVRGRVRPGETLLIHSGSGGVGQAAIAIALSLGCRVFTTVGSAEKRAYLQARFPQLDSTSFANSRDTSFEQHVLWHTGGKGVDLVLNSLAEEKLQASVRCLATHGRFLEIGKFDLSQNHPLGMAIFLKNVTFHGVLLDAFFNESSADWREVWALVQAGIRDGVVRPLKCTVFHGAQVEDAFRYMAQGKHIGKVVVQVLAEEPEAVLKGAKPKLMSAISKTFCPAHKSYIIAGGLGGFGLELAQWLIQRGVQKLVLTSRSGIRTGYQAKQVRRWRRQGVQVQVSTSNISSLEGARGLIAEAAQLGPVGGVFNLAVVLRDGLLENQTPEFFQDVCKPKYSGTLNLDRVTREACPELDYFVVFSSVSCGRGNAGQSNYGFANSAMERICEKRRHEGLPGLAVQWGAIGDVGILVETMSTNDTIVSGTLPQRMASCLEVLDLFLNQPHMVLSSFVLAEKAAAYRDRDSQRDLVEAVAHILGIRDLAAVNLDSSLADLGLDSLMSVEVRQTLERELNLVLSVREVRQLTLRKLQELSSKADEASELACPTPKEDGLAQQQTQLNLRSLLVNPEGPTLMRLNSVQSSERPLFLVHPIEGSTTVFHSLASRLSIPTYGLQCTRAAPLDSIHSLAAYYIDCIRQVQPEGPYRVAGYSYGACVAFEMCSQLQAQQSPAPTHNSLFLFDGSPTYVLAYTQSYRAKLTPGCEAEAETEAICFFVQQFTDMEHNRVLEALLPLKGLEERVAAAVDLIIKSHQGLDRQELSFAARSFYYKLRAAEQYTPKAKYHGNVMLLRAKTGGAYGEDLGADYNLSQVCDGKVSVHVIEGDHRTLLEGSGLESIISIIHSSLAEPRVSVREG

[11] = target: T7, Fatty acid synthase; assay: FAS thioesterase domain inhibitors, dose response, biochemical, kinetic fluorescence intensity (AID 624326); type: functional;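 further: rate of fluorescence rise from hydrolysis of a fluorogenic O-methyl fluorescein ester substrate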
[12] = cells; type: functional, cell-based
[13] = cells; type: functional, cell-based; remark: listed apart in the source

Structure (SMILES)	IC50 [2]	IC50 [3]	IC50 [4]	IC50 [5]	also measured
COc1ccc(NC(=O)Cn2nnc(-c3ccccc3NS(=O)(=O)c3ccc(OC)cc3)n2)cc1	–	–	–	–	IC50 [1]: > 80 µM (inactive)
O=Nc1ccc(NOC(=O)c2ccccc2)cc1	8.98 µM (active)	48.4 µM (active)	21.7 µM (active)	> 100 µM (inactive)	–
O=C(O)c1ccc(Nc2nc3c(s2)CCCC3)cc1	–	–	–	–	AC50 [6]: 4.2 µM (active); AC50 [7]: 6.49 µM (active); AC50 [8]: 4.75 µM (active)
Cc1nonc1OC(C)CNCCNc1ccc([N+](=O)[O-])cc1 (configuration not stated)	–	–	–	–	IC50 [9]: > 50 µM (inactive)
O=C(C1CC(c2ccc(Cl)c(Cl)c2)=NO1)N1CCC2(CC1)OCCO2 (configuration not stated)	–	–	–	–	IC50 [10]: 7.22 µM (active); IC50 [9]: > 50 µM (inactive); IC50 [11]: 5.55 µM (active)
CCc1ccc(/C=N/NC(=O)c2cc(C3CC3)nc3ccccc23)s1	–	–	–	–	IC50 [1]: > 80 µM (inactive)
COc1cccc(/N=C/c2c(O)oc3ccccc3c2=O)c1	14.2 µM (active)	> 100 µM (inactive)	> 100 µM (inactive)	> 100 µM (inactive)	–
O=[N+]([O-])c1ccc(N/N=C/c2ccccc2O)cc1	4.9 µM (active)	31.1 µM (active)	22.1 µM (active)	55.1 µM (active)	EC50 [12]: 10.4 µM (active); EC50 [13]: > 350 µM (not active)
COc1ccc(/C=C2\CCc3ccccc3C2=O)cc1OC	7.94 µM (active)	27.3 µM (active)	15.8 µM (active)	22.1 µM (active)	–
